Measurements published in patent publication US8883796B2, “Biphenyl derivatives, pharmaceutical composition comprising the same, and preparation method thereof” (Korea Institute of Science and Technology, priority 2013, dated 2014).

Target: T1, Human recombinant 5-HT7 receptor (Homo sapiens, UniProt P34969)
T1 construct: expressed in transfected cells; host or cells: CHO cells (membrane preparation)
Test: Binding affinity for 5-HT7 serotonin receptor ([3H]LSD radioligand binding)
Conditions: 1 nM [3H]LSD, human recombinant 5-HT7 receptor expressed in CHO cells; for Ki: 25° C., 90 minutes; for inhibition at 10 µM: 10 μM test compound
Method: % inhibition at 10 μM and binding affinity (Ki) of the novel compound represented by the Chemical Formula 1 according to the present disclosure for the 5-HT7 serotonin receptor were measured as follows.
Human recombinant 5-HT7 receptor expressed in CHO cells was used. A reaction mixture (final concentration 0.25 mL) prepared from 1 nM [^3H]LSD, 5-HT7 receptor membrane (15 μg/well), test compound of various concentrations and 50 mM Tris-HCl buffer (pH 7.4) containing 10 mM MgCl2 and 0.1 mM EDTA was incubated at 25° C. for 90 minutes. After the incubation, reaction was terminated by rapid filtration through Whatman GF/C glass fiber filter previously soaked in 0.3% polyethyleneimine using a Brandel harvester and washed with cold 50 mM Tris-HCl buffer. The filter was covered with MeltiLex, sealed in a sample bag and dried in an oven. Counting was carried out using MicroBeta (Wallac). Nonspecific binding was measured in the presence of 0.5 μM mianserin. The Ki value of the test compound was obtained from nonlinear regression analysis (GraphPad Prism Program, San Diego, USA) of isotherms obtained by repeating experiments 3 times in duplicate test tubes at 10-11 varied concentrations.
The % inhibition at 10 μM and binding affinity (Ki) of the novel compound according to the present disclosure for the 5-HT7 serotonin receptor are given in Table 1.

T1 sequence (P34969 whole entry): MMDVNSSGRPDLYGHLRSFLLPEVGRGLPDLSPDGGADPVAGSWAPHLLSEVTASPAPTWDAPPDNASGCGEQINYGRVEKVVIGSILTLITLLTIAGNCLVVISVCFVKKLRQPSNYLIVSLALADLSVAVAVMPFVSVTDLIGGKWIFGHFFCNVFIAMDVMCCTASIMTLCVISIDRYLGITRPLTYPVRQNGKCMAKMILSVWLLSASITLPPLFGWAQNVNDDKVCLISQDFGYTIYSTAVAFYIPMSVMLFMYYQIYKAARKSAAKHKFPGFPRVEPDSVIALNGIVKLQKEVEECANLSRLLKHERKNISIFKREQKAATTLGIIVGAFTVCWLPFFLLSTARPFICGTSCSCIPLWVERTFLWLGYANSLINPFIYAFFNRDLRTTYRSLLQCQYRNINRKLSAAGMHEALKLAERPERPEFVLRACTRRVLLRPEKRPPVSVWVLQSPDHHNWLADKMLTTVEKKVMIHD

| Structure (SMILES) | Ki [µM] | inhibition at 10 µM [%] |
| --- | --- | --- |
| c1ccc(-c2ccccc2CN2CCN(c3ccccc3-c3ccccc3)CC2)cc1 [Compound 24, 1-(biphenyl-2-ylmethyl)-4-(biphenyl-2-yl)piperazine] | 0.256 | 93.8 |
| FC(F)(F)c1cccc(N2CCN(Cc3ccccc3-c3ccccc3)CC2)c1 [Compound 25, 1-(biphenyl-2-ylmethyl)-4-(3-(trifluoromethyl)phenyl)piperazine] | 0.064 | 95.9 |
| Cc1cc(C)cc(N2CCN(Cc3ccccc3-c3ccccc3)CC2)c1 [Compound 22, 1-(biphenyl-2-ylmethyl)-4-(3,5-dimethylphenyl)piperazine] | 0.367 | 84 |
| CC(C)c1ccccc1N1CCN(Cc2ccccc2-c2ccccc2)CC1 [Compound 23, 1-(biphenyl-2-ylmethyl)-4-(2-isopropylphenyl)piperazine] | 0.274 | 87 |
| Clc1ccccc1N1CCN(Cc2cccc(-c3ccccc3)c2)CC1 [Compound 38, 1-(biphenyl-3-ylmethyl)-4-(2-chlorophenyl)piperazine] | 0.066 | 88.3 |
| Fc1cccc(N2CCN(Cc3cccc(-c4ccccc4)c3)CC2)c1 [Compound 36, 1-(biphenyl-3-ylmethyl)-4-(3-fluorophenyl)piperazine] | 0.079 | 91.3 |
| COc1ccccc1N1CCN(Cc2ccccc2-c2ccccc2)CC1 [Compound 8, 1-(biphenyl-2-ylmethyl)-4-(2-methoxyphenyl)piperazine] | 0.432 | 95.1 |
| Cc1ccc(C)c(N2CCN(Cc3ccccc3-c3ccccc3)CC2)c1 [Compound 21, 1-(biphenyl-2-ylmethyl)-4-(2,5-dimethylphenyl)piperazine] | 0.658 | 93.8 |
| CCOc1ccccc1N1CCN(Cc2ccccc2-c2ccccc2)CC1 [Compound 9, 1-(biphenyl-2-ylmethyl)-4-(2-ethoxyphenyl)piperazine] | 0.192 | 86.2 |
| c1ccc(-c2ccccc2CN2CCN(c3ccccc3)CC2)cc1 [Compound 1, 1-(biphenyl-2-ylmethyl)-4-phenylpiperazine] | 0.537 | 59.7 |
| Cc1cccc(N2CCN(Cc3cccc(-c4ccccc4)c3)CC2)c1 [Compound 47, 1-(biphenyl-3-ylmethyl)-4-(3-methylphenyl)piperazine] | 0.015 | 95.4 |
